The source of these data is patent publication US10239868B2, “5-hydroxytryptamine receptor 7 activity modulators and their method of use” (TEMPLE UNIVERSITY OF THE COMMONWEALTH SYSTEM OF HIGHER …, priority 2013, dated 2019).

Serotonin 5HT7 receptors, sequence (P34969 whole entry): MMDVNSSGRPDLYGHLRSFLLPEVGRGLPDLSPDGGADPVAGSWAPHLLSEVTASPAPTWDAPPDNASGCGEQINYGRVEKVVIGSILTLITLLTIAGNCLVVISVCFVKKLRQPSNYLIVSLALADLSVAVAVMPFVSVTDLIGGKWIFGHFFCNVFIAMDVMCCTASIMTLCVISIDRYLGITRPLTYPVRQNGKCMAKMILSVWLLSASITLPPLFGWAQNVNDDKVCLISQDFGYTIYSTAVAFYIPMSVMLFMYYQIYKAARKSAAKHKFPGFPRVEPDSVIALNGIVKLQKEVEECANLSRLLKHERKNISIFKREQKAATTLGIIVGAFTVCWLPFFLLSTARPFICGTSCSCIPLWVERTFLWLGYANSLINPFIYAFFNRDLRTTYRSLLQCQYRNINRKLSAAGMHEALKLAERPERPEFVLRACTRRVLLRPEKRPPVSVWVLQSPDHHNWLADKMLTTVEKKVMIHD

This test addresses Serotonin 5HT7 receptors (Homo sapiens (Human), UniProt P34969). Briefly: Radiolabel Binding Studies for Serotonin 5HT7 receptors.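 Note: displacement of a tritiated radioligand from membranes of stably transfected cells carrying recombinant 5-HT7 receptor, with filter-bound radioactivity measured by scintillation counting.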 Conditions: read-out: 5-HT7 % inhib @ 10 uM.
Procedure: Radiolabel Binding Studies for Serotonin 5HT7 Receptors, Method 1:
Eleven dilutions (5× assay concentration) of the compound of the disclosure and chlorpromazine are prepared in the Assay Buffer by serial dilution to yield final corresponding assay concentrations ranging from 10 pM to 10 μM.
A stock concentration of 5 nM [^3H]LSD (lysergic acid diethyl amide) is prepared in 50 mM Tris-HCl, 10 mM MgCl2, 1 mM EDTA, pH 7.4 (Assay Buffer). Aliquots (50 μl) of radioligand are dispensed into the wells of a 96-well plate containing 100 μl of Assay Buffer. Duplicate 50-μl aliquots of the compound of the disclosure test and chlorpromazine positive control reference compound serial dilutions are added.
Membrane fractions of cells expressing recombinant 5HT7 receptors (50 μL) are dispensed into each well. The membranes are prepared from stably transfected cell lines expressing 5HT7 receptors cultured on 10-cm plates by harvesting PBS-rinsed monolayers, resuspending and lysing in chilled, hypotonic 50 mM Tris-HCl, pH 7.4, centrifuging at 20,000×g, decanting the supernatant and storing at −80° C.; the membrane preparations are resuspended in 3 ml of chilled Assay Buffer and homogenized by several passages through a 26 gauge needle before using in the assay.
The 250-μl reactions are incubated at room temperature for 1.5 hours, then harvested by rapid filtration onto 0.3% polyethyleneimine-treated, 96-well filter mats using a 96-well Filtermate harvester. Four rapid 500-μl washes are performed with chilled Assay Buffer to reduce non-specific binding. The filter mats are dried, then scintillant is added to the filters and the radioactivity retained on the filters is counted in a Microbeta scintillation counter.
Raw data (dpm) representing total radioligand binding (i.e., specific+non-specific binding) are plotted as a function of the logarithm of the molar concentration of the competitor (i.e., test or reference compound).
Take `CCC1(CC)CC(CCN2CCN(c3ccc(O)cc3)CC2)OC1=O` (stereo not shown) [Entry 1]: the inhibition at 10 µM came to 95.9%. In the case of `CCC1(CC)CC(CCN2CCN(c3ccc([N+](=O)[O-])cc3)CC2)OC1=O` (stereo not shown) [Entry 2] it was 93.3%; in that of `CCC1(CC)CC(CCN2CCN(c3ccc(C#N)cc3)CC2)OC1=O` (stereo not shown) [Entry 3], 88.4%. As to `CCC1(CC)CC(CCN2CCN(c3ccc(C)cc3)CC2)OC1=O` (stereo not shown) [Entry 4], the inhibition at 10 µM is 96.6%. With `CCC1(CC)CC(CCN2CCN(CCc3ccccc3)CC2)OC1=O` (stereo not shown) [Entry 5], the inhibition at 10 µM stood at 53.1%. For `CCC1(CC)CC(CCN2CCN(c3ccccc3O)CC2)OC1=O` (stereo not shown) [Entry 6], the inhibition at 10 µM was 99.9%. On to `CCC1(CC)CC(CCN2CCN(c3cccc(OC)c3)CC2)OC1=O` (stereo not shown) [Entry 7], for which the inhibition at 10 µM was 94.8%. With `CCC1(CC)CC(CCN2CCN(c3cccc(O)c3)CC2)OC1=O` (stereo not shown) [Entry 8], the inhibition at 10 µM came out at 93.6%. On to `CCC1(CC)CC(CCN2CCN(c3ccccn3)CC2)OC1=O` (stereo not shown) [Entry 9], for which the inhibition at 10 µM came out at 101%. With `CCC1(CC)CC(CCN2CCN(c3c(C)cccc3C)CC2)OC1=O` (stereo not shown) [Entry 10], the inhibition at 10 µM is 70.4%.

As to `CCC1(CC)CC(CCN2CCN(c3ccccc3)CC2)OC1=O` (stereo not shown) [Entry 11], the inhibition at 10 µM amounted to 95.4%. On to `CCC1(CC)CC(CCN2CCN(c3ccc(N)cc3)CC2)OC1=O` (stereo not shown) [Entry 12], for which the inhibition at 10 µM was determined as 80.9%. On to `CCC1(CC)CC(CCN2CCN(C3CCCCC3)CC2)OC1=O` (stereo not shown) [Entry 13], for which the inhibition at 10 µM came out at 82.5%.

In the case of `CCC1(CC)CC(CCN2CCN(c3ccccc3C(C)C)CC2)OC1=O` (stereo not shown) [Entry 14], the inhibition at 10 µM came to 54.3%.

`CCC1(CC)CC(CCN2CCN(C(c3ccccc3)c3ccccc3)CC2)OC1=O` (stereo not shown) [Entry 15]: the inhibition at 10 µM was 58.4%.

In the case of `CCC1(CC)CC(CCN2CCN(c3ccccc3C)CC2)OC1=O` (stereo not shown) [Entry 16], the inhibition at 10 µM was found to be 58.2%. The value for `CCC1(CC)CC(CCN2CCN(c3ccc(C)cc3C)CC2)OC1=O` (stereo not shown) [Entry 17] was 56.2%. In the case of `CCC1(CC)CC(CCN2CCc3ccccc3C2)OC1=O` (stereo not shown) [Entry 18] it was 82%. The value for `COc1ccc(N2CCN(CCC3CC4(CCCCC4)C(=O)O3)CC2)cc1` (stereo not shown) [Entry 20] was 78.1%; that for `O=C1OC(CCN2CCN(c3cccc(O)c3)CC2)CC12CCCCC2` (stereo not shown) [Entry 21] was 86.8%.

`O=C1OC(CCN2CCN(c3ccccc3)CC2)CC12CCCCC2` (stereo not shown) [Entry 22]: the inhibition at 10 µM amounted to 98%.

Regarding `COc1cccc(N2CCN(CCC3CC4(CCCCC4)C(=O)O3)CC2)c1` (stereo not shown) [Entry 23], the inhibition at 10 µM turned out to be 93.7%. As for `COc1ccccc1N1CCN(CCC2CC3(CCCCC3)C(=O)O2)CC1` (stereo not shown) [Entry 24], the inhibition at 10 µM came to 90.7%. In the case of `O=C1OC(CCN2CCN(c3ccccc3O)CC2)CC12CCCCC2` (stereo not shown) [Entry 25] it was 93.3%. With `O=C1OC(CCN2CCN(c3ccccn3)CC2)CC12CCCCC2` (stereo not shown) [Entry 26], the inhibition at 10 µM came to 97.4%.

With `O=C1OC(CCN2CCN(c3ccccc3Cl)CC2)CC12CCCCC2` (stereo not shown) [Entry 27], the inhibition at 10 µM worked out at 97%. On to `O=C1OC(CCN2CCN(c3ccc(Cl)cc3)CC2)CC12CCCCC2` (stereo not shown) [Entry 28], for which the inhibition at 10 µM worked out at 98%. The value for `O=C1OC(CCN2CCN(c3ccc(C(F)(F)F)cc3)CC2)CC12CCCCC2` (stereo not shown) [Entry 29] was 96%; that for `O=C1OC(CCN2CCN(c3ccncc3)CC2)CC12CCCCC2` (stereo not shown) [Entry 30] was 46.5%. `O=C1OC(CCN2CCN(c3ccc(O)cc3)CC2)CC12CCCCC2` (stereo not shown) [Entry 31]: the inhibition at 10 µM amounted to 54.1%. With `O=C1OC(CCN2CCN(c3cccnc3)CC2)CC12CCCCC2` (stereo not shown) [Entry 32], the inhibition at 10 µM is 76.3%. On to `N#Cc1ccc(N2CCN(CCC3CC4(CCCCC4)C(=O)O3)CC2)cc1` (stereo not shown) [Entry 33], for which the inhibition at 10 µM came out at 83.4%. On to `N#Cc1ccc(N2CCN(CCC3CC4(CCCCC4)C(=O)O3)CC2)nc1` (stereo not shown) [Entry 34], for which the inhibition at 10 µM was 64.2%. Turning to `O=C1OC(CCN2CCN(c3ccc(C(F)(F)F)cn3)CC2)CC12CCCCC2` (stereo not shown) [Entry 35], the inhibition at 10 µM came to 91.1%. In the case of `O=C1OC(CCN2CCN(c3ccc(Cl)cn3)CC2)CC12CCCCC2` (stereo not shown) [Entry 36] it was 96.7%.

On to `CCC1(CC)CC(CCN2CCC(C(O)(c3ccccc3)c3ccccc3)CC2)OC1=O` (stereo not shown) [Entry 37], for which the inhibition at 10 µM amounted to 69%. For the compound `CCC1(CC)CC(CCN2CCC(=C(c3ccccc3)c3ccccc3)CC2)OC1=O` (stereo not shown) [Entry 38], the inhibition at 10 µM amounted to 96.5%. The value for `CC(C)c1ccccc1N1CCN(CCC2CC3(CCCC3)C(=O)O2)CC1` (stereo not shown) [Entry 39] was 96.1%; that for `CC(C)(C)c1ccccc1N1CCN(CCC2CC3(CCCC3)C(=O)O2)CC1` (stereo not shown) [Entry 40] was 81.7%.

With `CC(C)c1cccc(C(C)C)c1N1CCN(CCC2CC3(CCCC3)C(=O)O2)CC1` (stereo not shown) [Entry 41], the inhibition at 10 µM came out at 25.2%. For the compound `O=C1OC(CCN2CCN(c3ccccc3N3CCOCC3)CC2)CC12CCCC2` (stereo not shown) [Entry 42], the inhibition at 10 µM is 97.2%. As for `CCC1(CC)CC(CCN2CCN(c3ccccc3OC)CC2)OC1=O` (stereo not shown) [Entry 43], the inhibition at 10 µM was 95.3%. The value for `Cc1ccc(N2CCN(CC3CC(c4ccccc4)(c4ccccc4)C(=O)O3)CC2)cc1` (stereo not shown) [Entry 44] was 40.8%; that for `Cc1ccc(N2CCN(CCC3CC(c4ccccc4)(c4ccccc4)C(=O)O3)CC2)cc1` (stereo not shown) [Entry 45] was 97.4%. With `Cc1ccc(N2CCN(CCCC3CC(c4ccccc4)(c4ccccc4)C(=O)O3)CC2)cc1` (stereo not shown) [Entry 46], the inhibition at 10 µM was found to be 96.8%.

In the case of `CCC1(CC)CC(CCN2CCC(c3ccccc3)CC2)OC1=O` (stereo not shown) [Entry 47], the inhibition at 10 µM worked out at 29.3%.
